ChEMBL document CHEMBL5725356, “Anti-fibrotic pyridinones” (2017)

Assay: ET-1 Assay: Fibroblasts (primary human lung and dermal, HFL-1, 3T3 etc) are seeded in 96-well plates at ~15000 cells/well and serum starved for 0-48 hours. After media exchange, compounds serially diluted in DMSO are added to the cells. After a brief incubation of ~30 min, stimulants (TGFb, serum, LPA etc) are added followed by further incubation for 16-48 hours. Media is then harvested and stored frozen in plate format for later endothelin-1 (ET-1) determination by ELISA. Toxicity measurements are made using the ATPlite kit (Perkin-Elmer). ET-1 is quantified using an ELISA kit (R&D Systems). The amount of ET-1 produced in the assay wells are back-calculated using the ELISA standard. The ability of a compound to inhibit ET-1 production is typically analyzed by fitting dose-response curves to a 4-parameter logistic function to obtain an EC50 value.
Conditions: HFL1

Row | SMILES | EC50
1 | Cc1cc(=O)n(-c2ccc(C(F)(F)F)cc2)cc1-c1ccc(F)cc1 | > 200 µM
2 | CC(=O)Nc1cccc(-n2cc(-c3ccccc3)c(C)cc2=O)c1 | > 200 µM
3 | Cn1cc(-c2cn(-c3ccc(OC(F)(F)F)cc3)c(=O)cc2NCc2ccccc2)cn1 | < 50 µM
4 | Cc1cc(=O)n(-c2ccc(F)cc2)cc1-c1ccc(OC(F)(F)F)cc1 | in the range around 125 µM
5 | CC(=O)Nc1cc(=O)n(-c2ccc(OC(F)(F)F)cc2)cc1-c1cnn(C)c1 | > 200 µM
6 | Cc1cc(=O)n(-c2ccc(OC(F)(F)F)cc2)cc1-c1ccc(F)c(F)c1 | in the range around 125 µM
7 | Cc1cc(=O)n(-c2ccc(OC(F)(F)F)cc2)cc1-c1ccc2c(c1)OCCO2 | in the range around 125 µM
8 | Cc1cc(=O)n(-c2ccc(OC(F)(F)F)cc2)cc1-c1cccc(F)c1 | < 50 µM
9 | Cc1cc(=O)n(-c2ccccc2)cc1-c1ccc(F)cc1 | in the range around 125 µM
10 | Cc1cc(=O)n(-c2cccc(N)c2)cc1-c1ccc(F)cc1 | in the range around 125 µM
11 | Cc1cc(=O)n(-c2cccc(OC(F)(F)F)c2)cc1-c1ccccc1 | < 50 µM
12 | Cc1cc(=O)n(-c2ccc(OC(F)(F)F)cc2C)cc1-c1ccc(F)cc1 | < 50 µM
13 | Cn1cc(-c2cn(-c3ccc(OC(F)(F)F)cc3)c(=O)cc2OCCN2CCCC2=O)cn1 | > 200 µM
14 | Cc1cc(=O)n(-c2ccccc2F)cc1-c1ccc(F)cc1 | in the range around 125 µM
15 | Cc1cc(=O)n(-c2ccc(OC(F)(F)F)cc2)cc1-c1ccc(F)c(Cl)c1 | < 50 µM
16 | Cn1cc(-c2cn(-c3ccc(OC(F)(F)F)cc3)c(=O)cc2N)cn1 | > 200 µM
17 | Cn1cc(-c2cn(-c3ccc(OC(F)(F)F)cc3)c(=O)cc2N2CCc3ccccc3C2)cn1 | in the range around 125 µM
18 | Cc1cc(=O)n(-c2ccc(OC(F)(F)F)cc2)cc1-c1ccc2c(c1)NC(=O)CO2 | < 50 µM
19 | Cn1cc(-c2cn(-c3ccc(OC(F)(F)F)cc3)c(=O)cc2NCCc2ccccc2)cn1 | > 200 µM
20 | Cn1cc(-c2cn(-c3ccc(OC(F)(F)F)cc3)c(=O)cc2OCCN2CCOCC2)cn1 | > 200 µM
21 | CC(C)c1cc(=O)n(-c2ccc(OC(F)(F)F)cc2)cc1-c1ccc(F)cc1 | in the range around 125 µM
22 | Cn1cc(-c2cn(-c3ccc(OC(F)(F)F)cc3)c(=O)cc2OCc2ccccc2)cn1 | > 200 µM
23 | CCOc1ccc(-n2cc(-c3ccccc3)c(C)cc2=O)c(C)c1 | in the range around 125 µM

Row | SMILES | EC50
24 | Cn1cc(-c2cn(-c3ccc(OC(F)(F)F)cc3)c(=O)cc2NCc2cccnc2)cn1 | in the range around 125 µM
25 | Cc1cc(=O)n(-c2ccc3c(c2)OCCO3)cc1-c1ccc(F)cc1 | > 200 µM
26 | COC(=O)Nc1cc(=O)n(-c2ccc(OC(F)(F)F)cc2)cc1-c1cnn(C)c1 | > 200 µM
27 | Cn1cc(-c2cn(-c3ccc(OC(F)(F)F)cc3)c(=O)cc2N2CCOCC2)cn1 | < 50 µM
28 | Cn1cc(-c2cn(-c3ccc(OC(F)(F)F)cc3)c(=O)cc2OC2CCS(=O)(=O)CC2)cn1 | in the range around 125 µM
29 | CCc1cc(=O)n(-c2ccc(OC(F)(F)F)cc2)cc1-c1ccc(F)cc1 | in the range around 125 µM
30 | CNc1cc(=O)n(-c2ccc(OC(F)(F)F)cc2)cc1-c1cnn(C)c1 | > 200 µM
31 | Cn1cc(-c2cn(-c3ccc(OC(F)(F)F)cc3)c(=O)cc2NCc2c(F)cccc2F)cn1 | in the range around 125 µM
32 | Cc1cc(=O)n(-c2cccc(C(F)(F)F)c2)cc1-c1ccccc1 | < 50 µM
33 | CC(C)OC(=O)Nc1cc(=O)n(-c2ccc(OC(F)(F)F)cc2)cc1-c1cnn(C)c1 | > 200 µM
34 | Cc1cc(=O)n(-c2ccc(OC(F)(F)F)cc2)cc1-c1cccc2c1OCCO2 | < 50 µM
35 | Cc1cc(=O)n(-c2ccc(OC(F)(F)F)cc2)cc1-c1ccc2c(c1)OCO2 | in the range around 125 µM
36 | CN(Cc1ccccc1)c1cc(=O)n(-c2ccc(OC(F)(F)F)cc2)cc1-c1cnn(C)c1 | < 50 µM
37 | Cc1cc(=O)n(-c2ccc(Cl)cc2C)cc1-c1ccccc1 | in the range around 125 µM
38 | Cc1cc(=O)n(-c2cccc(OC(F)(F)F)c2)cc1-c1ccc(F)cc1 | < 50 µM
39 | Cc1cc(=O)n(-c2ccc(OC(F)(F)F)cc2)cc1-c1cccc2c1OC(C)(C)O2 | in the range around 125 µM
40 | Cn1cc(-c2cn(-c3ccc(OC(F)(F)F)cc3)c(=O)cc2Oc2cc(Cl)cc(C#N)c2)cn1 | > 200 µM
41 | Cc1cc(=O)n(-c2ccc(OC(F)(F)F)cc2)cc1-c1ccc(Cl)c(F)c1 | in the range around 125 µM
42 | CCOc1ccc(-n2cc(-c3cccc(F)c3)c(C)cc2=O)c(C)c1 | in the range around 125 µM
43 | Cc1cc(=O)n(-c2ccc(OC(F)(F)F)cc2)cc1-c1cn[nH]c1 | < 50 µM
44 | CNC(=O)c1cccc(-n2cc(-c3ccc(F)cc3)c(C)cc2=O)c1 | in the range around 125 µM
45 | Cn1cc(-c2cn(-c3ccc(OC(F)(F)F)cc3)c(=O)cc2OCCN2CCS(=O)(=O)CC2)cn1 | > 200 µM
46 | Cc1cc(=O)n(-c2ccc(OC(F)(F)F)cc2)cc1-c1ccc(Cl)c(Cl)c1 | in the range around 125 µM

Row | SMILES | EC50
47 | Cn1cc(-c2cn(-c3ccc(OC(F)(F)F)cc3)c(=O)cc2Oc2ccccc2)cn1 | < 50 µM
48 | Cc1cc(=O)n(-c2ccc(OC(F)(F)F)cc2)cc1-c1ccccc1 | < 50 µM
49 | Cc1cc(=O)n(-c2ccc(OC(F)(F)F)cc2)cc1-c1cccc2c1OCO2 | < 50 µM
50 | CCOc1ccc(Oc2cc(=O)n(-c3ccc(OC(F)(F)F)cc3)cc2-c2cnn(C)c2)cc1C#N | < 50 µM
51 | Cc1cc(=O)n(-c2cccc(C(F)(F)F)c2)cc1-c1ccc(F)cc1 | in the range around 125 µM
52 | Cc1cc(=O)n(-c2ccc(OC(F)(F)F)cc2)cc1-c1ccc(F)cc1 | > 200 µM
53 | Cc1cc(=O)n(-c2ccccc2C)cc1-c1ccc(F)cc1 | in the range around 125 µM
54 | Cc1cc(=O)n(-c2ccc3c(c2)OCO3)cc1-c1ccc(F)cc1 | > 200 µM
55 | Cc1ccc(-n2cc(-c3ccc(F)cc3)c(C)cc2=O)cc1 | in the range around 125 µM
56 | Cc1cc(=O)n(-c2cccc(C(N)=O)c2)cc1-c1ccc(F)cc1 | > 200 µM
57 | O=c1cc(C(F)(F)F)c(-c2ccc(F)cc2)cn1-c1ccc(OC(F)(F)F)cc1 | in the range around 125 µM
58 | Cn1cc(-c2cn(-c3ccc(OC(F)(F)F)cc3)c(=O)cc2OCCN2CCOCC2=O)cn1 | in the range around 125 µM
59 | CC(=O)Nc1cccc(-n2cc(-c3ccc(F)cc3)c(C)cc2=O)c1 | > 200 µM
60 | Cn1cc(-c2cn(-c3ccc(OC(F)(F)F)cc3)c(=O)cc2N2CCCCC2)cn1 | > 200 µM
61 | CCCCOC(=O)Nc1cc(=O)n(-c2ccc(OC(F)(F)F)cc2)cc1-c1cnn(C)c1 | in the range around 125 µM
62 | Cn1cc(-c2cn(-c3ccc(OC(F)(F)F)cc3)c(=O)cc2NCc2c(Cl)cccc2Cl)cn1 | > 200 µM
63 | Cc1cc(=O)n(-c2cccc(NC(N)=O)c2)cc1-c1ccc(F)cc1 | < 50 µM
64 | Cc1cc(=O)n(-c2ccc(OC(F)(F)F)cc2)cc1-c1ccc2c(c1)N(C)C(=O)CO2 | < 50 µM
65 | Cn1cc(-c2cn(-c3ccc(OC(F)(F)F)cc3)c(=O)cc2NCc2ccccn2)cn1 | < 50 µM
66 | Cc1cc(=O)n(-c2cccc3c2OCO3)cc1-c1ccc(F)cc1 | in the range around 125 µM
67 | Cc1cc(=O)n(-c2cccc3c2OCCO3)cc1-c1ccc(F)cc1 | in the range around 125 µM
68 | Cc1cc(=O)n(-c2ccc(OC(F)(F)F)cc2)cc1-c1ccc2c(c1)OC(F)(F)O2 | in the range around 125 µM
69 | Cc1cc(=O)n(-c2ccc(OC(F)(F)F)cc2)cc1-c1ccc2c(c1)OC(C)(C)O2 | > 200 µM

Row | SMILES | EC50
70 | CC(=O)Nc1cccc(-n2cc(-c3cn[nH]c3)c(C)cc2=O)c1 | > 200 µM
71 | COCCOc1cc(=O)n(-c2ccc(OC(F)(F)F)cc2)cc1-c1cnn(C)c1 | > 200 µM
72 | Cn1cc(-c2cn(-c3ccc(OC(F)(F)F)cc3)c(=O)cc2NC(=O)OCc2ccccc2)cn1 | in the range around 125 µM
73 | Cn1cc(-c2cn(-c3ccc(OC(F)(F)F)cc3)c(=O)cc2OCCN2CCCC2)cn1 | in the range around 125 µM
74 | COc1ccc(CNc2cc(=O)n(-c3ccc(OC(F)(F)F)cc3)cc2-c2cnn(C)c2)cc1 | < 50 µM
75 | Cc1cc(=O)n(-c2ccc(C(F)(F)F)cc2)cc1-c1ccccc1 | < 50 µM
76 | Cn1cc(-c2cn(-c3ccc(OC(F)(F)F)cc3)c(=O)cc2C(=O)O)cn1 | > 200 µM
77 | Cc1cc(=O)n(-c2ccc(OC(F)(F)F)cc2)cc1-c1ccccc1F | < 50 µM
78 | Cn1cc(-c2cn(-c3ccc(OC(F)(F)F)cc3)c(=O)cc2Nc2ccccc2)cn1 | > 200 µM
79 | Cc1cc(=O)n(-c2ccc(OC(F)(F)F)cc2)cc1-c1ccc(-c2cncs2)cc1 | in the range around 125 µM
80 | CCCNC(=O)c1cc(=O)n(-c2ccc(OC(F)(F)F)cc2)cc1-c1cnn(C)c1 | > 200 µM
81 | CN1CCC(Oc2cc(=O)n(-c3ccc(OC(F)(F)F)cc3)cc2-c2cnn(C)c2)CC1 | < 50 µM
82 | CN1CCN(CCOc2cc(=O)n(-c3ccc(OC(F)(F)F)cc3)cc2-c2cnn(C)c2)CC1 | in the range around 125 µM
83 | CCOc1ccc(-n2cc(-c3cnn(C)c3)c(OC)cc2=O)c(C)c1 | < 50 µM
84 | COc1ccc(CN(C)c2cc(=O)n(-c3ccc(OC(F)(F)F)cc3)cc2-c2cnn(C)c2)cc1 | in the range around 125 µM
85 | Cc1cc(=O)n(-c2ccccc2)cc1-c1ccccc1 | in the range around 125 µM
86 | Cc1cc(=O)n(-c2ccc(Cl)cc2)cc1-c1ccc(F)cc1 | > 200 µM
87 | COc1cc(-n2cc(-c3ccc(F)cc3)c(C)cc2=O)cc(OC)c1OC | in the range around 125 µM
88 | CCOc1ccc(Oc2cc(=O)n(-c3ccc(OC(F)(F)F)cc3)cc2-c2cnn(C)c2)cc1C | > 200 µM
89 | CCOc1ccc(-n2cc(-c3ccc(F)cc3)c(C)cc2=O)c(C)c1 | in the range around 125 µM
90 | Cc1cc(=O)n(-c2ccccc2F)cc1-c1ccccc1 | in the range around 125 µM
91 | Cc1cc(=O)n(-c2ccc(OC(F)(F)F)cc2)cc1-c1cccc(Cl)c1 | in the range around 125 µM
92 | CCOC(=O)Nc1cc(=O)n(-c2ccc(OC(F)(F)F)cc2)cc1-c1cnn(C)c1 | > 200 µM
